In paper PMC6009855, “Design and synthesis of naphthalimide group-bearing thioglycosides as novel β-N-acetylhexosaminidases inhibitors” (Journal of Enzyme Inhibition and Medicinal Chemistry, 2018):
Like-named read-outs stand apart in the source and are kept apart here. Values belong to the molecule of their own block, whether it stands above or below them.

What was measured:
[1] = molecular target: T1, hsHexB (Homo sapiens, UniProt P07686); test: Inhibitory potency assay, end-point, 4-MU-GlcNAc substrate, pH 4.0; type: biochemical; conditions: for Inhibition potency against hsHexB (in words): each compound at 20 µM, Figure 3; for Ki: 4-MU-GlcNAc, pH 4.0, 30 °C, 30 min, read-out: Ki against hsHexB
T1 construct: His6; made in house; host or cells: Pichia pastoris GS115 (pPIC9 vector)
T1 sequence (P07686 122-556): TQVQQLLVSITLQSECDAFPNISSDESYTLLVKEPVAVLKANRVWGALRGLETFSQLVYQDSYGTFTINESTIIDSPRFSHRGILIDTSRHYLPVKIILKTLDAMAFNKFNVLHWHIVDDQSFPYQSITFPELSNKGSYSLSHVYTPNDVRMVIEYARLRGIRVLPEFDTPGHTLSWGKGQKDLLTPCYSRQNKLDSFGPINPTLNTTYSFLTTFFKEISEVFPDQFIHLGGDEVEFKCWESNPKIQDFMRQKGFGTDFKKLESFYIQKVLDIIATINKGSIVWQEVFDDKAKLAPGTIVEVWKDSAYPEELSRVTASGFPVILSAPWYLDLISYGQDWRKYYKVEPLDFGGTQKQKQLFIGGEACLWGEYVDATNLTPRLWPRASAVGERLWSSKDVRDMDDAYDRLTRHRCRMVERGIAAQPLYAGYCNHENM
Experimental: (§1) Gene encoding hsHexB, which was engineered to contain a His6-tagged fusion protein, was cloned into pPIC9 expression vector (Invitrogen, Carlsbad, CA, USA), and subsequently transformed into Pichia pastoris GS115 (Invitrogen, Carlsbad, CA, USA) by electroporation. The cells were first cultured in BMGY broth (1% yeast extract, 1% glycerol, 2% peptone, 0.2% biotin, 1.34% yeast nitrogen, 0.1 M potassium phosphate, pH 6.0) at 30 °C. Methanol was added into the culture daily at a final concentration of 1% (v/v). When OD600 value reached 2.0 (after ∼120 h), the cells were harvested by centrifugation at 6000g for 10 min. While the pellet was resuspended in BMMY broth (1% yeast extract, 1% methanol, 2% peptone, 0.2% biotin, 1.34% yeast nitrogen, 0.1 M potassium phosphate, pH 6.0), the supernatant was subjected to ammonium sulfate precipitation (75% saturation) at 4 °C, in which the precipitate was further resuspended in distilled water and then desalted in buffer A (20 mM sodium phosphate, 0.5 M sodium chloride, pH 7.4). Subsequently, the resuspension solution was centrifuged at 17,000g for 30 min at 4 °C and passed through a 0.2-µm filter prior to loading onto a 5-ml HisTrap FF affinity column (GE Healthcare, Chicago, IL, USA), which was pre-equilibrated with buffer A. To remove nonspecific binding proteins, the column was sequentially washed with buffer A-containing 20 mM imidazole and buffer A-containing 50 mM imidazole. Finally, the target protein was eluted with buffer B (20 mM sodium phosphate, 0.5 M sodium chloride, 150 mM imidazole, pH 7.4). Purity of the protein was further analyzed by SDS–PAGE. hOGA was overexpressed in Escherichia coli BL21(DE3) and purified as described previously.
(§2) Potencies of hsHexB and hOGA were assayed by end-point experiment, in which 4-methylumbelliferyl N-acetyl-β-D-glucosaminide (4-MU-GlcNAc; Sigma, St. Louis, MO, USA) was used as a substrate. Various concentrations of inhibitors and substrates (50 µM, 25 µM, and 12.5 µM) were mixed with Britton-Robinson buffer (hsHexB, pH 4.0; hOGA, pH 6.0), dimethylsulfoxide at a final concentration of 2%, enzyme, and 40 µM 4-MU-GlcNAc in a reaction of 100-µl final volume, and incubated at 30 °C for 30 min. Then, the enzymatic reaction was terminated by the addition of 100 µl of 0.5 M sodium carbonate solution. The fluorescence of the released 4-methylumbelliferone was quantified (excitation at 366 nm, emission at 445 nm) on a Varioskan Flash microplate reader (Thermo Fisher Scientific, Waltham, MA, USA). To determine the inhibition constant (Ki), the reciprocal plots of 1/velocity versus inhibitor were constructed. Data analysis was performed using Graph Pad Prism software (Graph Pad Software Inc., San Diego, CA, USA).

[2] = system: hsHexA; set-up: method as in PMID 17317569; conditions: read-out: IC50 against hsHexA; cited from earlier work
[3] = system: GH20 and GH84 β-N-acetylhexosaminidases; set-up: method as in PMID 22280348, PMID 23688083; conditions: cited from earlier work
[4] = molecular target: T1, hsHexB; set-up: method as in PMID 20187655; conditions: cited from earlier work
[5] = molecular target: hsHex; set-up: method as in PMID 24900704; conditions: read-out: Ki against hsHex; cited from earlier work
[6] = molecular target: T2, hOGA (Homo sapiens, UniProt O60502); test: Inhibitory potency assay, end-point, 4-MU-GlcNAc substrate, pH 6.0; type: biochemical; conditions: for Ki: 4-MU-GlcNAc, pH 6.0, 30 °C, 30 min, read-out: Ki against hOGA; for Inhibition potency against hOGA (in words): each compound at 20 µM, Figure 3
T2 construct: made in house; host or cells: Escherichia coli BL21(DE3)
T2 sequence (O60502 1-916): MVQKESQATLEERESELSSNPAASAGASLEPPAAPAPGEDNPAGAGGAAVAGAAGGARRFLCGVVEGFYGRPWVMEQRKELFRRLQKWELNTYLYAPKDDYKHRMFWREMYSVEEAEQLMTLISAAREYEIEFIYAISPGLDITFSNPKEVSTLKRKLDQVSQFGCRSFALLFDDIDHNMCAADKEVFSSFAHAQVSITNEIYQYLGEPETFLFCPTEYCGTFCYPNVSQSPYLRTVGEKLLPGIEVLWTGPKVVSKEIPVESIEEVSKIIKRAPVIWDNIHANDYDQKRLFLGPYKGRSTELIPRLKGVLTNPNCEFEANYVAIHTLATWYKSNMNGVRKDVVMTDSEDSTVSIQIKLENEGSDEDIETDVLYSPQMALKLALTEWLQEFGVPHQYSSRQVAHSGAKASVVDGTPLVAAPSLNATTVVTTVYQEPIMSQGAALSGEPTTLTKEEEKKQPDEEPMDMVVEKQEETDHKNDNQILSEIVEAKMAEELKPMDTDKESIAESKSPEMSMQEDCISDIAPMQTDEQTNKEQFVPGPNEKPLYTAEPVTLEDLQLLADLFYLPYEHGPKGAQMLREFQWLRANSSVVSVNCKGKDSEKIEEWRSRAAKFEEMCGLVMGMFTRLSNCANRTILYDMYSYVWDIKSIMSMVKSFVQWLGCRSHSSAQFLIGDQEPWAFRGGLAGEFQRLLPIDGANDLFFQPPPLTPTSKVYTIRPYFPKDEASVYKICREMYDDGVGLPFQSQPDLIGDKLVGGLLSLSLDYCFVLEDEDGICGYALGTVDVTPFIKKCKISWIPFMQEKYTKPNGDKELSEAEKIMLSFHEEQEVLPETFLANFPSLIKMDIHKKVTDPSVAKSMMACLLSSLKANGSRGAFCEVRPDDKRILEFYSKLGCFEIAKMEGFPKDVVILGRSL
Experimental: as §1, §2

[7] = molecular target: GH20 insect β-N-acetylhexosaminidase OfHex1; set-up: method as in PMID 25155420; conditions: read-out: Ki against OfHex1; cited from earlier work

Molecule: 2-[2-[2-[(2-acetamido-β-D-glucopyranosyl)thio]ethylamino]ethyl]-1H-benzo[de] isoquinoline-1,3(2H)-dione [compound 15a]
Inhibition potency against hsHexB (in words) [1]: highest potencies

Molecule: O=C1c2cccc3cccc(c23)C(=O)N1CCNCCN1C(=O)c2cccc3cccc(c23)C1=O [M-31850]
IC50 [2]: 6 µM

Molecule: CC1=N[C@@H]2[C@@H](O)[C@H](O)[C@@H](CO)O[C@@H]2S1 [NAG-thiazoline]
Selectivity between GH20 and GH84 β-N-acetylhexosaminidases [3]: non-selectivity

Molecule: CC(=O)N[C@H]1c2nc(CC(=O)O)cn2[C@H](CO)[C@H](O)[C@@H]1O [Nagstatin]
Selectivity between GH20 and GH84 β-N-acetylhexosaminidases [3]: non-selectivity

Molecule: CC(=O)N[C@H]1/C(=N/OC(=O)Nc2ccccc2)O[C@H](CO)[C@@H](O)[C@@H]1O [PUGNAc]
Selectivity between GH20 and GH84 β-N-acetylhexosaminidases [3]: non-selectivity

Molecule: COc1ccc(CN(CCCCCCCN2C[C@H](NC(C)=O)[C@@H](O)[C@H](O)[C@H]2CO)Cc2ccc(OC)cc2)cc1 [compound 4 (5)]
Selectivity for hsHexB toward GH84 hOGA [4]: 250,000 fold | Ki ([4]; read-out: Ki against hsHexB): 0.00069 µM

Molecule: COc1ccc(CNCCN2C(=O)c3cccc4cccc(c34)C2=O)cc1 [compound 7a (7)]
Ki [5]: 0.63 µM

melting point: 218 to 220 °C | Type of inhibition of hOGA ([6]; Dixon plots, Figure 4B): competitive inhibitors | Ki ([6]; Dixon plots): 3.76 µM | Inhibition potency against hOGA (in words) [6]: highest potency | Ki ([1]; Dixon plots): 30.4 µM
Molecule: CC(=O)N[C@@H]1[C@@H](O)[C@H](O)[C@@H](CO)O[C@H]1SCCNCCCN1C(=O)c2cccc3cccc(c23)C1=O [compound 15b]

melting point: 230 to 232 °C | Inhibition potency against hsHexB (in words) [1]: highest potencies
Molecule: CC(=O)N[C@@H]1[C@@H](O)[C@H](O)[C@@H](CO)O[C@H]1SCCCNCCN1C(=O)c2cccc3cccc(c23)C1=O [compound 15d]

Inhibition potency against hsHexB (in words) [1]: highest potencies
Molecule: CC(=O)N[C@@H]1[C@@H](O)[C@H](O)[C@@H](CO)O[C@H]1SCCCCCNCCN1C(=O)c2cccc3cccc(c23)C1=O [compound 15g]

Ki ([6]; Dixon plots): > 100 µM | Type of inhibition of hsHexB ([1]; Dixon plots, Figure 4A): competitive inhibitors | Ki ([1]; Dixon plots): 0.91 µM | Inhibition potency against hsHexB (in words) [1]: highest potencies
Molecule: CC(=O)N[C@@H]1[C@@H](O)[C@H](O)[C@@H](CO)O[C@H]1SCCCCCCNCCN1C(=O)c2cccc3cccc(c23)C1=O [compound 15j]

Inhibition potency against hsHexB (in words) [1]: considerably decreased
Molecule: CC(=O)N[C@@H]1[C@@H](O)[C@H](O)[C@@H](CO)O[C@H]1SCCCCCCNCCCN1C(=O)c2cccc3cccc(c23)C1=O [compound 15k]

Inhibition potency against hsHexB (in words) [1]: considerably decreased
Molecule: CC(=O)N[C@@H]1[C@@H](O)[C@H](O)[C@@H](CO)O[C@H]1SCCCCCCNCCCCN1C(=O)c2cccc3cccc(c23)C1=O [compound 15l]

melting point: 236 to 238 °C | Inhibition potency against hOGA (in words) [6]: hardly showed activity | Inhibition potency against hsHexB (in words) [1]: hardly showed activity
Molecule: CC(=O)N[C@@H]1[C@@H](O)[C@H](O)[C@@H](CO)O[C@H]1SCCCCS[C@@H]1O[C@H](CO)[C@@H](O)[C@H](O)[C@H]1NC(C)=O [compound 17, 1,4-bis[(2-acetamido-2-deoxy-β-D-glucopyranosyl)thio] butane]

Molecule: Cc1nnc(CNCCN2C(=O)c3cccc4cccc(c34)C2=O)s1 [compound Q1]
Ki [7]: 4.28 µM
